# ChEMBL document CHEMBL4706668, “Minimization of apoptosis-inducing CPP-Bim peptide” (Bioorg Med Chem Lett, 2021)
# Calls of active or inactive are those of the source. The rule behind the calls is not given here. Residues, ends and D or L forms follow the SMILES beside them.
# Assays:
# [1] = test system: CHO; experiment: Induction of apoptosis in CHO cells at 10 uM incubated for 3 hrs followed by compound washout by NucView-488 staining based fluorescence microscopy; format: cell-based, Cricetulus griseus; conditions: chinese hamster
# [2] = test system: HeLa; experiment: Induction of apoptosis in human HeLa cells at 10 uM incubated for 3 hrs followed by compound washout by NucView-488 staining based fluorescence microscopy; format: functional, cell-based
# [3] = test system: HeLa; experiment: Induction of apoptosis in human HeLa cells at 10 uM incubated for 3 hrs followed by compound washout by NucView-488 staining based fluorescence microscopy relative to control; format: functional
# [4] = test system: CHO; experiment: Induction of apoptosis in CHO cells at 10 uM incubated for 3 hrs followed by compound washout by NucView-488 staining based fluorescence microscopy relative to control; format: cell-based, Cricetulus griseus; conditions: chinese hamster
# [5] = Drug distribution in cytosol of human HeLa cells at 2 uM incubated for 3 hrs followed by compound washout and subsequent irradiation with mercury lamp at 10J/cm2 using Alexa Fluor-546 labeled compound by fluorescence microscopy; format: ADME, subcellular
# [6] = test system: HeLa; experiment: Induction of apoptosis in human HeLa cells at 2 uM incubated for 3 hrs followed by compound washout and subsequent irradiation with mercury lamp at 10J/cm2 and further incubated for 3 hrs using Alexa Fluor-546 labeled compound by fluorescence microscopy; format: functional, cell-based
molecule,measurement,setting,value
H-RRIWIAQELRRIGDEFNAYYGC-OH,Activity,[1],Not Active
same,Activity,[2],inactive
H-RKKRRQRRREIWIAQELRRIGDEFGC-OH,Activity,[2],inactive
H-RRRRRRIWIAQELRRIGDEFNAYYGC-OH,Activity,[1],Not Active
same,Activity,[2],inactive
H-RKKRRQRRREIWIAQELRRIGDGC-OH,Activity,[2],inactive
H-RKKRRQRRRIWIAQELRRIGDEFNAYYARGC-OH,Activity,[3],85%
same,Activity,[4],31%
H-RKKRRQRRRAQELRRIGDEFNAYYARGC-OH,Activity,[2],inactive
H-RKKRRQRRREIWIAQELRRIGDEFNAYYARGC-OH,Drug uptake,[5],Active
H-RKKRRQRRREIWIAQELRRIGDEFNAYYGC-OH,Activity,[3],79%
same,Activity,[4],44%
H-RKKRRQRRRWIAQELRRIGDGC-OH,Activity,[2],Active
H-RKKRRQRRRWGC-OH,Activity,[6],inactive
H-RKKRRQRRREIWIAQELRRIGC-OH,Activity,[2],inactive
H-RKKRRQRRREIWIAQELRRIGDEFNAGC-OH,Activity,[2],inactive
H-RKKRRQRRRIWIAQELRRIGDEFNAYYGC-OH,Activity,[6],Active
same,Drug uptake,[5],Active
H-RKKRRQRRRWIAQELRRIGDEFNAYYARGC-OH,Activity,[2],Active
CC[C@H](C)[C@H](NC(=O)[C@H](CCCNC(=N)N)NC(=O)[C@H](CCCNC(=N)N)NC(=O)[C@H](CC(C)C)NC(=O)[C@H](CCC(=O)O)NC(=O)[C@H](CS)NC(=O)[C@H](C)NC(=O)[C@@H](NC(=O)[C@H](Cc1c[nH]c2ccccc12)NC(=O)[C@@H](NC(=O)[C@H](CCCNC(=N)N)NC(=O)[C@H](CCCNC(=N)N)NC(=O)[C@H](CCCNC(=N)N)NC(=O)[C@@H](N)CCCNC(=N)N)[C@@H](C)CC)[C@@H](C)CC)C(=O)NCC(=O)N[C@@H](CC(=O)O)C(=O)N[C@@H](CCC(=O)O)C(=O)N[C@@H](Cc1ccccc1)C(=O)N[C@@H](CC(N)=O)C(=O)N[C@@H](C)C(=O)N[C@@H](Cc1ccc(O)cc1)C(=O)N[C@@H](Cc1ccc(O)cc1)C(=O)NCC(=O)N[C@@H](CS)C(=O)O (H-RRRRIWIACELRRIGDEFNAYYGC-OH),Activity,[1],Not Active
same,Activity,[2],inactive
H-RRRRRRRRIWIAQELRRIGDEFNAYYGC-OH,Activity,[6],Active
same,Drug uptake,[5],Active
same,Activity,[3],70%
same,Activity,[2],Active
H-RKKRRQRRRIAQELRRIGDEFNAYYARGC-OH,Activity,[2],inactive
